What is called Ki is a measure of affinity in units of concentration, obtained from inhibition or displacement. The low end stands for tighter binding, the high end for weaker binding. As usually defined, the IC50 is the concentration that inhibits the measured activity by half.

One series concerns the target dopamine D2-receptors (Rattus norvegicus, UniProt P61169). In words: affinity for dopamine D2-receptors by displacement experiments with [3H]-spiperone (rat striatum membranes). In kind it is binding. The protocol: 1Determining the affinity for dopamine D2-receptors by displacement experiments with [^3 H]-spiperone (Modified Method of W. Billard et al., Life Sci. 35, 1885 (1984) and D. J. de Vries and P. M. Beart, Eur. J. Pharmacol. 109, 417 (1985))
Male rats (of the Chbb:Thom strain weighing about 200 g) were killed by a blow to the back of the neck. The brains were removed and dissected on ice. The striata were dissected out, weighed and homogenised in 25 volumes of tris buffer (50 mM tris-HCl, 1 mM EDTA, 5 mM MgCl2 and 1 mM ascorbic acid) for 30 seconds in an Ultra-Turrax at maximum speed, followed by 10 cycles in a Potter-Elvehjem at 1400 rpm. The pellet obtained after centrifuging at 50,000×g at 4° C. for 15 minutes was again taken up in 25 ml of tris buffer and centrifuged under the above conditions. The supernatant was discarded and the pellet obtained was incubated in 25 ml of tris buffer at 37° C. for 30 minutes and then centrifuged again at 50,000×g at 4° C. for 15 minutes. Finally, the pellet obtained was mixed with tris buffer to obtain a homogenate dilution of 1:500 (based on the weight of the striata).
1 ml aliquots of the membrane preparation were incubated with 1 ml of a solution of 0.25 nM [^3 H]-spiperone ([…], Messrs. DuPont NEN) and at increasing concentrations of the test substance (10^-11 to 10^-4 M) at ambient temperature for one hour. Incubation was ended by the addition of 5 ml of ice cold tris buffer and filtration using Whatman GF/B filters. The filters were washed twice, each time with 5 ml of ice cold buffer. The radioactivity of the filters was determined by liquid scintillation measurement in Instagel^(R) (Messrs. Canberra Packard). Non-specific binding was determined in the presence of 10^-5 M haloperidol (Sigma Chemical Co.).
Displacement curves were obtained from the data using the TOPFIT programming package (G. Heinzel in "Pharmacokinetics During Drug Development: Data Analysis and Evaluation Techniques", G. Bozler and J. M. van Rossum Eds., G. Fischer Verlag, Stuttgart 1982, 207).

A further series addresses T1, alpha-2 receptors (Rattus norvegicus, UniProt P22909).
T1 sequence (P22909 1-465): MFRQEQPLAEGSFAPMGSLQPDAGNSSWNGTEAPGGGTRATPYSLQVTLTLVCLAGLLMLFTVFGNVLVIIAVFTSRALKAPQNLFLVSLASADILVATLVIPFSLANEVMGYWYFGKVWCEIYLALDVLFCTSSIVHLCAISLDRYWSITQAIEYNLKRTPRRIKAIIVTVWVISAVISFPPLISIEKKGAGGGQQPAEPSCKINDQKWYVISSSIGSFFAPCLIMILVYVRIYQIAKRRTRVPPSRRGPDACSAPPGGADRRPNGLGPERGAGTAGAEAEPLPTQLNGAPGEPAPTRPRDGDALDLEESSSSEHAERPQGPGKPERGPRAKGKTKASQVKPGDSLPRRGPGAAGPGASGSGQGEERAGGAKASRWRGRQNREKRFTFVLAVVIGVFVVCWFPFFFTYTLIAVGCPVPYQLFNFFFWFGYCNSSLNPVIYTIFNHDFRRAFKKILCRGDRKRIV
In words: affinity for alpha-2 receptors by displacement experiments with [3H]-clonidine (rat cortex membranes). In kind it is binding. The note with it: read-out: α2-IC50.

In series [1] the test system is hypersensitive dopamine receptor. In words: motility triggering in the mouse treated 24 hours earlier with reserpine. In kind it is in vivo. Conditions: Mus musculus, sc; reserpine-treated mice, s.c.; read-out: DLi50 (dosage resulting in 50 running pulses every 5 minutes). The procedure:
This test determines predominantly agonistic effects on the hypersensitive dopamine receptor.
Male mice are treated 24 hours before the experiment with 5 mg/kg i.p. reserpine. The animals are kept at 25°-30° C. and treated three times with 2 ml of a 5% glucose solution in tyrode s.c. (the first time when the reserpine is given, the second time in the evening of the pre-treatment day and the third time on the morning of the test day).
[…] (The injection volume is usually 0.1 ml/10 g of body weight). 30 minutes later the groups of animals are placed in the observation cages (measuring 42 x 24 x 8 cm) and fitted with an infrared lightbeam in order to measure their activity. The value measured is the frequency with which a group of 6 mice pass through the infra-red beam within 5 minutes ("running pulses/5 minutes"; mean at n=3; mean±s.e.m. at n=6).
3 to 6 groups are tested for each substance.

For another series, the system named is MPTP monkeys. Nature of the series: post-synaptic dopaminergic activity in MPTP monkeys. It counts as in vivo, rhesus monkey. The text has this:
6. Determining the post-synaptic dopaminergic activity in MPTP monkeys (Modified Method of R. S. Burns et al., Proc. Natl. Acad. Sci. 80. 4546 (1983))
The neurotoxin 1-methyl-4-phenyl-1,2,3,6- tetrahydro-pyridine (MPTP) produces in humans and monkeys an irreversible syndrome which in its clinical, pathological, biochemical and pharmacological appearance is very similar to idiopathic Parkinson's disease (Markey et al., Nature 311, 464 (1984)). The reason for this similarity is that MPTP selectively destroys those dopaminergic nerve cells in the substantia nigra of the brain which are also lost by degenerative processes in Parkinson's disease. There is even some discussion that MPTP or an MPTP-like substance might be formed in the body and trigger Parkinson's disease (S. H. Snyder, Nature 311, 514 (1984)). Possibly because of the specific MPTP metabolism, the clinical formation of the MPTP-induced Parkinson syndrome has hitherto been detected only in humans and monkeys. The MPTP model produced in the rhesus monkey is therefore exceptionally suitable for testing the activity of post-synaptically acting dopamine agonists. For this purpose, rhesus monkeys were given MPTP in overall doses of up to about 6 mg/kg of body weight, until the following symptoms appeared: The animals were akinetic and unable to take water and food.
It is clear that with the compounds according to the invention there is no sedative effect or ataxia at a dosage which is several times the MED, which can be put down to the absence of a corresponding activity mediated by the α2- receptors.

Sequence of dopamine D2-receptors (P61169 whole entry): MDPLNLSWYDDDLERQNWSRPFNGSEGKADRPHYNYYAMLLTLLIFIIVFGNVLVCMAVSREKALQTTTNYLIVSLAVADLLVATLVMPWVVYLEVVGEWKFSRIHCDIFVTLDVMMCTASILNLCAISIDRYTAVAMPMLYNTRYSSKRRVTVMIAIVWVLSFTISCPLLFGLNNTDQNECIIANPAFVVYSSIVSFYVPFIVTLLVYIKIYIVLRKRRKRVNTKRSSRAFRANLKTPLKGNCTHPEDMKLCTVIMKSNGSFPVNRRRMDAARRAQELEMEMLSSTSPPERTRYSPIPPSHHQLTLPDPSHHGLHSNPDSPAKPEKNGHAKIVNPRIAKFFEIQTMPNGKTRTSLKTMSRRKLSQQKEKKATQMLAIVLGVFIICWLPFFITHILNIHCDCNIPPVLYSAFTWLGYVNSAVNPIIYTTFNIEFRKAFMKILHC
Experimental for alpha-2 receptors: Determination of the affinity for alpha-2 receptors by displacement experiments with [^3 H] clonidine (Modified Method of B. Jarrott, W. J. Louis and R. J. Summers, Biochem. Pharmacol. 27, 141 (1979))
A male rat (Chbb:Thom strain weighing about 200 g) was killed by a blow to the back of the neck. The brain was removed and the cortex dissected out, weighed and homogenised in 25 volumes of tris buffer (50 mM tris- HCl, pH 7.50) for 30 seconds in an Ultra-Turrax at maximum speed, followed by 10° Cycles in a Potter- Elvehjem at 1400 rpm. The homogenised material was combined with tris buffer to obtain a homogenate dilution of 1:50 (based on the weight of the cortex).
1 ml aliquots of the membrane preparation were incubated for three hours at ambient temperature with 1 ml of a solution of 1 nM of [^3 H]-clonidine (2.2 TBq/mmol, Messrs. DuPont NEN) and with increasing concentrations of the test substance (10^-11 to 10^-4 M). Incubation was ended by the addition of 5 ml of ice-cold tris buffer and filtration through Whatman GF/B filters. The filters were washed twice, each time with 5 ml of ice cold buffer. The radioactivity of the filters was determined by liquid scintillation measurement in Instagel(R) (Messrs. Canberra Packard). The non-specific binding was determined in the presence of 10^-5 M of oxymetazoline (Sigma Chemical Co.).

Molecule `Nc1nc2c(s1)CCN(CC=Cc1ccccn1)CC2` [Example 11a, 2-Amino-6-(3-(2-pyridyl)allyl)-4,5,7,8-tetrahydro-6H-thiazolo[5,4-d]azepin] had a Ki at dopamine D2-receptors ([3H]-spiperone, high-affinity form of the dopamine receptor) of 4.3 nM. In addition, the “α2-IC50 / D2-Ki” value on dopamine D2-receptors (relative affinity for dopamine-D2 receptors compared with α2-adrenoceptors, the higher, the higher the D2/α2 selectivity) was 176. Besides, on alpha-2 receptors, the IC50 worked out at 760 nM. The ED (50 running pulses/5 min) in series [1] was 0.35 mg/kg. Besides, in the series on MPTP monkeys (0.05 mg/kg i.m. (MED)), the Duration of activity lay in the range of 1.5 to 2 h and the Side effects result is “none”. In the series with MPTP monkeys (3.00 mg/kg i.m.), this molecule came in with a Duration of activity of 5 h. The minimal effective dose in the series with MPTP monkeys (Primates, in Macaca mulatta, im, rhesus monkeys, i.m., read-out: minimum dose (MED) required to alleviate the Parkinson's symptoms) is 0.05 mg/kg.

Take `Nc1nc2c(s1)CCN(CC=Cc1ccco1)CC2` [Example 8, 2-Amino-6-(3-(2-furyl)allyl)-4,5,7,8-tetrahydro-6H-thiazolo[5,4-d]azepine]: the ED (50 running pulses/5 min) in series [1] came out at 0.34 mg/kg.

Take `Nc1nc2c(s1)CCN(CC=Cc1cccnc1)CC2` [Example 11b, 2-Amino-6-(3-(3-pyridyl)allyl)-4,5,7,8-tetrahydro-6H-thiazolo[5,4-d]azepine]: the ED (50 running pulses/5 min) in series [1] came out at 0.29 mg/kg.

As for `Nc1nc2c(s1)CCN(CC=Cc1ccsc1)CC2` [Example 4a, 2-Amino-6-(3-(3-thienyl)allyl)-4,5,7,8-tetrahydro-6H-thiazolo[5,4-d]azepin], in series [1], the ED (50 running pulses/5 min) stood at 1.85 mg/kg.

Source of the values: US5068325A, “4,5,7,8-tetrahydro-6H-thiazolo[5,4-d]azepines, their preparation and their use as pharmaceutical compositions” (priority 1988, dated 1991).
